Source: PubChem BioAssay (NCI)
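Results reflect a 48-hour exposure of cells in 96-well plates to compound at five concentrations. GI50: concentration for 50% inhibition of growth. Definition used: TGI = concentration required for complete inhibition of growth.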

Tests used:
Assay in all cases: NCI anticancer screen, dose series, 48 h
OVCAR-8 ovarian = tested on: OVCAR-8 ovarian
RXF 393 renal = tested on: RXF 393 renal
HOP-92 NSCLC = tested on: HOP-92 NSCLC
UACC-62 melanoma = tested on: UACC-62 melanoma
OVCAR-4 ovarian = tested on: OVCAR-4 ovarian
SNB-75 CNS = tested on: SNB-75 CNS
MDA-MB-435 = tested on: MDA-MB-435
HS 578T breast = tested on: HS 578T breast

Structure (SMILES)	TGI (OVCAR-8 ovarian)	TGI (RXF 393 renal)	TGI (HOP-92 NSCLC)	TGI (UACC-62 melanoma)	TGI (OVCAR-4 ovarian)	TGI (SNB-75 CNS)	TGI (MDA-MB-435)	GI50 (HOP-92 NSCLC)	GI50 (UACC-62 melanoma)	GI50 (OVCAR-4 ovarian)	GI50 (MDA-MB-435)	GI50 (HS 578T breast)	TGI (HS 578T breast)	GI50 (OVCAR-8 ovarian)	GI50 (RXF 393 renal)	GI50 (SNB-75 CNS)
O=c1cc(N=Nc2ccc(O)cc2)[nH]c(=O)[nH]1	> 100 µM	> 100 µM	> 100 µM	> 100 µM	> 100 µM	89.9 µM	> 100 µM	–	–	–	–	–	–	–	–	–
CC(C)(C#N)c1cc(C(=O)Nc2cc(Nc3ncccc3-c3ncnc4nc[nH]c34)ccc2F)cc(C(F)(F)F)c1	> 10 µM	> 2.89 µM	1.78 µM	0.788 µM	> 2.93 µM	> 10 µM	> 3.22 µM	0.255 µM	0.0871 µM	1.3 µM	0.217 µM	0.919 µM	> 2.33 µM	–	–	–
CCC(/C=C/c1ccccc1)=N\Nc1ccc(Cl)c(Cl)c1	39.6 µM	58.4 µM	58.2 µM	31.5 µM	–	> 100 µM	> 100 µM	–	–	–	–	–	> 100 µM	–	–	–
Nc1c(C(=O)Nc2ccccc2)sc2nc3c(cc12)CN(Cc1ccccc1)CC3	> 100 µM	54.3 µM	20.4 µM	> 100 µM	23.1 µM	–	71.6 µM	2.48 µM	13.9 µM	1.97 µM	3.43 µM	2.07 µM	7.55 µM	16.8 µM	3.15 µM	–
O=C(CN(/C=C/C(=O)C(F)(F)F)c1ccccc1)c1ccc(Cl)c(Cl)c1	33 µM	52.5 µM	38.5 µM	21.3 µM	45.6 µM	–	31.9 µM	17.7 µM	9.43 µM	20.3 µM	14.9 µM	14.8 µM	49.6 µM	16.6 µM	17.1 µM	–
CC(C)c1ccc(Nc2nccc(-c3cnn4ncccc34)n2)cc1	3.74 µM	0.827 µM	1.59 µM	1.13 µM	2.63 µM	1.17 µM	1.66 µM	0.503 µM	0.326 µM	0.604 µM	0.567 µM	0.623 µM	5.16 µM	0.555 µM	0.28 µM	0.484 µM
COc1ccc2c(c1)C(C)Cc1c(Cl)nc(C)nc1N2C (centres undefined)	15.4 µM	20.8 µM	29.5 µM	36.2 µM	> 100 µM	9.04 µM	–	3.95 µM	0.665 µM	4.94 µM	–	3.98 µM	64.4 µM	3.58 µM	2.78 µM	1.94 µM
CCCc1cc(=O)n2c(C(=O)Nc3ccccc3OC)c(C(=O)Nc3ccc(F)cc3)sc2n1	20.7 µM	12.1 µM	4.73 µM	22.7 µM	15.3 µM	35 µM	> 160 µM	1.43 µM	4.24 µM	5.03 µM	36.5 µM	6.27 µM	25.6 µM	5.67 µM	5.14 µM	8.72 µM
CCCOC(=O)CCn1c(SC)nc2[nH]cc(-c3ccccc3)c2c1=O	> 100 µM	54.8 µM	40.4 µM	26.5 µM	95.8 µM	57.6 µM	38.5 µM	3.64 µM	11.7 µM	29.2 µM	17.5 µM	28.1 µM	> 100 µM	20.5 µM	19.1 µM	13.4 µM
COc1cc(C2C3=C(COC3=O)Nc3cc4c(cc32)CCC4)cc2c1OCO2 (centres undefined)	1.99 µM	–	40.5 µM	17.7 µM	19.8 µM	18.8 µM	0.0604 µM	12.7 µM	0.051 µM	0.0717 µM	0.0237 µM	0.0425 µM	21.3 µM	0.0399 µM	–	0.0259 µM
CSc1ccccc1C#Cc1ccccc1C#CCCCCO	41.7 µM	17.5 µM	25.1 µM	25.7 µM	37.3 µM	28 µM	15.2 µM	9.76 µM	13 µM	17.7 µM	3.9 µM	7.62 µM	32.3 µM	18.7 µM	3.86 µM	13.8 µM
Cc1c(Cl)cccc1NC1=C(Cl)C(=O)N(Cc2ccccc2)C1=O	23.8 µM	32.7 µM	14.9 µM	19.7 µM	34 µM	–	20.8 µM	1.56 µM	6.15 µM	15.5 µM	8.55 µM	10.9 µM	24.8 µM	9.23 µM	12 µM	–
COc1cc2c3c(n(C)c(=O)c2cc1OC)-c1cc2c(cc1/C3=C\C(N)CN)OCO2 (centres undefined)	18.8 µM	3.38 µM	6.8 µM	3.66 µM	> 100 µM	> 31.3 µM	17.3 µM	0.368 µM	0.707 µM	5.44 µM	2.56 µM	4.2 µM	41.4 µM	1.75 µM	0.666 µM	3.6 µM
Nc1ccc(-c2ccc(N)cc2I)c(I)c1	94.7 µM	28 µM	37 µM	33.2 µM	> 100 µM	73.8 µM	16.2 µM	11.2 µM	12.1 µM	17.5 µM	3.72 µM	17.1 µM	88.3 µM	27.1 µM	10.9 µM	10.8 µM
CCCCCCCOc1c(OC)cc(C2CC(=O)Nc3c2c(C)nn3-c2nc3ccccc3[nH]2)cc1OC (centres undefined)	> 100 µM	5.02 µM	7.68 µM	7.3 µM	–	–	6.08 µM	2.34 µM	2.54 µM	–	2.42 µM	1.35 µM	4.43 µM	4.28 µM	1.96 µM	–
Cc1ccc2c(c1)C(=O)c1c-2n(CCCBr)c(=O)c2cc([N+](=O)[O-])ccc12	> 100 µM	> 100 µM	> 100 µM	> 100 µM	> 100 µM	> 100 µM	> 100 µM	29.4 µM	26.1 µM	> 100 µM	> 100 µM	> 100 µM	> 100 µM	> 100 µM	> 100 µM	48.1 µM
CCCOc1nc(SCCC)nc2c1cnn2-c1ccccc1	> 100 µM	> 100 µM	> 100 µM	> 100 µM	> 100 µM	> 100 µM	> 100 µM	2.93 µM	> 100 µM	> 100 µM	53.1 µM	> 100 µM	> 100 µM	> 100 µM	78.9 µM	> 100 µM

Structure (SMILES)	TGI (OVCAR-8 ovarian)	TGI (RXF 393 renal)	TGI (HOP-92 NSCLC)	TGI (UACC-62 melanoma)	TGI (OVCAR-4 ovarian)	TGI (SNB-75 CNS)	TGI (MDA-MB-435)	GI50 (HOP-92 NSCLC)	GI50 (UACC-62 melanoma)	GI50 (OVCAR-4 ovarian)	GI50 (MDA-MB-435)	GI50 (HS 578T breast)	TGI (HS 578T breast)	GI50 (OVCAR-8 ovarian)	GI50 (RXF 393 renal)	GI50 (SNB-75 CNS)
O=C(COc1cccc(/C=C2\COc3ccc(Cl)cc3C2=O)c1)c1ccc(Cl)cc1	37.5 µM	–	13.4 µM	23.1 µM	31.5 µM	22.2 µM	18.6 µM	0.536 µM	11 µM	14.9 µM	5.91 µM	18.8 µM	48.7 µM	15.8 µM	–	4.73 µM
O=C(OCCBr)c1ccc(Cl)c([N+](=O)[O-])c1	35.2 µM	29.9 µM	33.2 µM	28.5 µM	23 µM	12.2 µM	30.9 µM	16 µM	14.5 µM	10.2 µM	15.5 µM	3.13 µM	> 26.4 µM	17.3 µM	15.5 µM	5.63 µM
CC12CC(OC(=O)[C@]1(C)O)[C@@H]([C@]1(O)CC[C@H]3[C@@H]4C[C@H]5O[C@]56[C@@H](O)C=CC(=O)[C@]6(C)[C@H]4CC[C@@]31C)C2 (some centres undefined)	13.3 µM	8.76 µM	8.08 µM	37.2 µM	24.4 µM	–	29.4 µM	–	–	–	–	–	35.7 µM	–	–	–
Nc1n[nH]c2cccc(C#Cc3cccc(C(=O)Nc4cc(CN5CCOCC5)cc(C(F)(F)F)c4)c3)c12	20.6 µM	7.92 µM	9.61 µM	8.34 µM	23.1 µM	19.3 µM	15.2 µM	2.78 µM	1.99 µM	5.8 µM	3.46 µM	2.75 µM	34.1 µM	4.63 µM	2.21 µM	5.51 µM
C/C=C/[C@@H]1OC(=O)C2=C[C@@H](O)[C@@H](/C=C/C)O[C@H]21	34.1 µM	28.8 µM	9.12 µM	28.9 µM	27.8 µM	32.4 µM	25.5 µM	2.4 µM	13.9 µM	6.96 µM	10.4 µM	17.1 µM	41.2 µM	13.4 µM	6.27 µM	14.6 µM
COc1cc(C2CC(c3ccc(N(C)C)cc3)=NN2C(C)=O)cc(OC)c1OC (centres undefined)	> 100 µM	> 22.9 µM	> 100 µM	> 100 µM	> 100 µM	> 100 µM	1.18 µM	29.6 µM	1.48 µM	10.9 µM	0.231 µM	0.441 µM	3.03 µM	6.13 µM	2.73 µM	1.43 µM
COCCNc1cc(NC(=O)N2CCCc3cc(CN4CCN(C)CC4=O)c(C=O)nc32)ncc1C#N	> 50 µM	–	21.6 µM	> 50 µM	> 50 µM	> 50 µM	> 50 µM	1.59 µM	> 50 µM	> 50 µM	> 50 µM	23.7 µM	> 50 µM	> 50 µM	–	16 µM
CN(C(=O)c1ccncc1)c1ccccc1	> 100 µM	> 100 µM	> 100 µM	> 100 µM	> 100 µM	> 100 µM	> 100 µM	–	–	–	–	–	> 100 µM	–	–	–
Cn1ccnc1C(=O)/C=C/c1ccc(CC(=O)Nc2ccc(C(F)(F)F)cc2)cc1	> 16.7 µM	5.49 µM	5.66 µM	7.65 µM	> 16.7 µM	8.01 µM	12.5 µM	2.4 µM	3.16 µM	3.1 µM	3.88 µM	6.14 µM	> 16.7 µM	4.9 µM	2.72 µM	2.5 µM
Nc1cc(N)c2nc(-c3ccccc3)c(NCc3ccc(F)cc3)nc2c1	6.07 µM	27.2 µM	6.91 µM	29.5 µM	8.08 µM	5.06 µM	3.74 µM	3.32 µM	15.4 µM	1.69 µM	2.01 µM	4.86 µM	> 100 µM	2.66 µM	12.3 µM	2.16 µM
COc1ccc(-c2nn(-c3cccc(Cl)c3)cc2-c2cc(-c3ccccc3)nc(N)n2)cc1	3.78 µM	8.47 µM	4.77 µM	26 µM	9.64 µM	22 µM	–	1.06 µM	8.06 µM	2.42 µM	–	3.03 µM	18.4 µM	1.9 µM	2.64 µM	4.32 µM
CCN1C(=O)N(CC)C2C1NN=c1s/c(=C\c3cc4ccccc4[nH]3)c(=O)n12 (centres undefined)	31.3 µM	11.6 µM	6.28 µM	7.83 µM	> 100 µM	0.641 µM	–	0.0681 µM	< 0.0111 µM	< 0.0162 µM	–	< 0.0203 µM	9.1 µM	< 0.0191 µM	< 0.0187 µM	< 0.0149 µM
CC(C)N1C(NNC(=O)c2cnccn2)=NS(=O)(=O)c2ccccc21	> 100 µM	> 100 µM	–	> 100 µM	> 100 µM	> 100 µM	> 100 µM	–	> 100 µM	> 100 µM	> 100 µM	> 100 µM	> 100 µM	> 100 µM	> 100 µM	94.5 µM
N=C(N)c1ccc(COc2ccccc2OCc2ccc(C(=N)N)cc2)cc1	> 100 µM	–	86.2 µM	> 100 µM	> 100 µM	> 100 µM	> 100 µM	11.4 µM	34.2 µM	92 µM	30.2 µM	18.2 µM	52.6 µM	48.2 µM	–	73.8 µM
CCOc1ccccc1/C=N\N=C(\N)N/N=C/c1ccccc1OCC	> 100 µM	3.82 µM	–	> 100 µM	> 100 µM	8.05 µM	–	–	0.914 µM	3.68 µM	–	1.65 µM	7.26 µM	3.76 µM	1.26 µM	1.78 µM
Cc1cn2c(/C=N/Nc3ccccn3)c(-c3ccc(Cl)c([N+](=O)[O-])c3)nc2s1	19.8 µM	–	> 50 µM	46.3 µM	–	–	> 50 µM	12.9 µM	14.1 µM	–	30.3 µM	12 µM	39.4 µM	8.96 µM	–	–
